Publication PMC8049364, “Quantification of Macrophage-Driven Inflammation During Myocardial Infarction with ^18F-LW223, a Novel TSPO Radiotracer with Binding Independent of the rs6971 Human Polymorphism” (Journal of Nuclear Medicine, 2021)

How the values were obtained:
[1] = Radiometabolite analysis of blood and tissue in naïve rats; type: in vivo, rat; conditions: for Parent fraction: population curve
Procedure: Arterial blood samples were collected at 2, 5, 10, 20, 30, 60, and 120 min after radiotracer injection (69.7 ± 9.1 MBq [mean ± SEM], n = 17 rats), and heart, lung, and brain tissue samples were collected at 60 and 120 min. Blood and tissues were processed as detailed in the supplemental materials.
Invasive Input Function Measurement
Polyethylene catheters (PE50) filled with heparinized saline (20 IU/mL) were inserted into the left femoral artery and vein with the help of a stereomicroscope and securely fastened with ligatures (6-0 silk thread). […]
Radiometabolite Blood and Tissue Processing and Analysis
All blood samples were 1 mL each and manually collected from different animals to generate a population curve, in order to respect total blood volume limits for terminal arterial blood collections in rats. Following blood and tissue collection, all samples were […]
(§1) kept on ice until analyzed. Radioactivity in whole blood and plasma, as well as homogenized tissue samples, was assessed using a well-type γ-counter using a 400– 1400 keV window (Perkin Elmer Wizzard2, USA). Plasma samples (400 μl) and tissue samples (500 μl) were processed by acetonitrile denaturation (1:1.4 v/v) and analyzed by HPLC (Ultimate2000, ThermoFisher, UK) on a Luna C18(2) 10×250 mm, 10 μm column (Phenomenex, UK) with acetonitrile/water 70/30 and flow rate of 4 mL/min to estimate the […]
parent fraction. […]

[2] = Plasma free fraction by ultrafiltration; type: in vitro ADME; conditions: Sprague-Dawley, rat, mean ± SEM, n = 5, read-out: parent free fraction in plasma
Procedure: as §1, with “the parent fraction. The plasma fp was determined using ultrafiltration units (Centrifree® 30K,” for “the”
Simulation of Changes in 18F-LW223 BPND for varying blood flow scenarios Simulation work was carried out using a Matlab (MathWorks, USA) 2-tissue compartment code with Ordinary Differential Equation (ODE) solvers. Six different levels of K1 values (0.9, 0.7, 0.5, 0.3, 0.1 and 0.01 mL/min/cc) were tested with fixed k2 and vB=0.05. The following BPND values were simulated: 4, 10, 16 and 20; with k3 modified and k4 fixed. All micro parameters used in the simulations are shown in Supplementa l Table 5. The input function used was an average of the blood curve s taken from healthy animals using the SwissTrace blood sampler (Supplemental Data File 1). The plasma to whole blood ratio used was 1.84 and the AIF was metabolite corrected using a population based curve as in the experimental data. […]

[3] = Dosimetry from whole-body PET in mice (OLINDA/EXM, estimated for humans); type: in vivo
Procedure: Thirty-two PET scans were performed with ^18F-LW223 (17.8 ± 1.5 MBq, intravenous bolus, mean ± SEM). Naïve and MI rat scans were acquired immediately after intravenous bolus injection of ^18F-LW223. […] Dosimetry studies were conducted using mice and 240-min PET scans.
The following organs were identified as source organs: brain, heart, lung, gallbladder, liver, gut, adrenals, kidneys, and bladder. A whole-body VOI was drawn around the animal body and was used to quantify whole-body remainder activity as whole-body activity minus source-organ activity. At each time point, the measured activity of the source organs was expressed as the percentage injected dose. The residence time (τ), defined as the ratio of accumulated activity in the target organ (Ā) and injected activity (A0) (i.e., τ = Ā/A0 ([20])), was calculated as previously described ([21]). Calculated τ was normalized on the basis of the factors shown in Supplemental Table 3 ([22]–[26]) and entered into OLINDA/EXM software, version 1.0, to estimate organ doses and effective doses.
Organ Mouse Human Correction Factor
% Total body weight % Total body weight
Supplemental Table 3. Scaling factors for different organs in mice and humans based on their percentage contribution to total body weight. Data presented in this table was calculated based on previously published data.

Parent fraction ([1]; 2 min): 0.95
Parent fraction ([1]; 5 min): 0.82
Parent fraction ([1]; 10 min): 0.81
Parent fraction ([1]; 20 min): 0.81
Parent fraction ([1]; 30 min): 0.77
Parent fraction ([1]; 120 min): 0.69
radiometabolites in brain, heart, and lung ([1]; rat, 60 and 120 min after administration): less than 12.7%
plasma to whole blood ratio ([1]; used for input function correction): 1.84
fraction unbound [2]: 0.385
Effective dose ([3]; Female (n = 5)): 0.02 mSv/MBq
Estimated absorbed dose, Adrenals ([3]; Female (n = 5)): 3.67 ×10^−2 mGy/MBq
Estimated absorbed dose, Brain ([3]; Female (n = 5)): 0.56 ×10^−2 mGy/MBq
Estimated absorbed dose, Breasts ([3]; Female (n = 5)): 0.86 ×10^−2 mGy/MBq
Estimated absorbed dose, Gallbladder wall ([3]; Female (n = 5)): 2.46 ×10^−2 mGy/MBq
Estimated absorbed dose, Heart wall ([3]; Female (n = 5)): 1.89 ×10^−2 mGy/MBq
Estimated absorbed dose, Kidneys ([3]; Female (n = 5)): 1.54 ×10^−2 mGy/MBq
Estimated absorbed dose, Liver ([3]; Female (n = 5)): 1.95 ×10^−2 mGy/MBq
Estimated absorbed dose, Lower large intestine wall ([3]; Female (n = 5)): 9.26 ×10^−2 mGy/MBq
Estimated absorbed dose, Lung ([3]; Female (n = 5)): 3.31 ×10^−2 mGy/MBq
Estimated absorbed dose, Muscle ([3]; Female (n = 5)): 0.98 ×10^−2 mGy/MBq
Estimated absorbed dose, Osteogenic cells ([3]; Female (n = 5)): 1.52 ×10^−2 mGy/MBq
Estimated absorbed dose, Ovaries ([3]; Female (n = 5)): 1.66 ×10^−2 mGy/MBq
Estimated absorbed dose, Pancreas ([3]; Female (n = 5)): 1.26 ×10^−2 mGy/MBq
Estimated absorbed dose, Red marrow ([3]; Female (n = 5)): 0.98 ×10^−2 mGy/MBq
Estimated absorbed dose, Skin ([3]; Female (n = 5)): 0.74 ×10^−2 mGy/MBq
Estimated absorbed dose, Small intestine ([3]; Female (n = 5)): 1.30 ×10^−2 mGy/MBq
Estimated absorbed dose, Spleen ([3]; Female (n = 5)): 1.11 ×10^−2 mGy/MBq
Estimated absorbed dose, Stomach wall ([3]; Female (n = 5)): 1.15 ×10^−2 mGy/MBq
Estimated absorbed dose, Thymus ([3]; Female (n = 5)): 1.07 ×10^−2 mGy/MBq
Estimated absorbed dose, Thyroid ([3]; Female (n = 5)): 0.89 ×10^−2 mGy/MBq
Estimated absorbed dose, Total body ([3]; Female (n = 5)): 1.07 ×10^−2 mGy/MBq
Estimated absorbed dose, Upper large intestine wall ([3]; Female (n = 5)): 1.24 ×10^−2 mGy/MBq
Estimated absorbed dose, Urinary bladder wall ([3]; Female (n = 5)): 1.48 ×10^−2 mGy/MBq
Estimated absorbed dose, Uterus ([3]; Female (n = 5)): 1.29 ×10^−2 mGy/MBq
Effective dose ([3]; Male (n = 8)): 0.02 mSv/MBq
Estimated absorbed dose, Adrenals ([3]; Male (n = 8)): 2.22 ×10^−2 mGy/MBq
Estimated absorbed dose, Brain ([3]; Male (n = 8)): 0.59 ×10^−2 mGy/MBq
Estimated absorbed dose, Breasts ([3]; Male (n = 8)): 0.72 ×10^−2 mGy/MBq
Estimated absorbed dose, Gallbladder wall ([3]; Male (n = 8)): 2.01 ×10^−2 mGy/MBq
Estimated absorbed dose, Heart wall ([3]; Male (n = 8)): 2.03 ×10^−2 mGy/MBq
Estimated absorbed dose, Kidneys ([3]; Male (n = 8)): 1.57 ×10^−2 mGy/MBq
Estimated absorbed dose, Liver ([3]; Male (n = 8)): 1.30 ×10^−2 mGy/MBq
Estimated absorbed dose, Lower large intestine wall ([3]; Male (n = 8)): 7.82 ×10^−2 mGy/MBq
Estimated absorbed dose, Lung ([3]; Male (n = 8)): 3.10 ×10^−2 mGy/MBq
Estimated absorbed dose, Muscle ([3]; Male (n = 8)): 0.80 ×10^−2 mGy/MBq
Estimated absorbed dose, Osteogenic cells ([3]; Male (n = 8)): 1.20 ×10^−2 mGy/MBq
Estimated absorbed dose, Pancreas ([3]; Male (n = 8)): 1.03 ×10^−2 mGy/MBq
Estimated absorbed dose, Red marrow ([3]; Male (n = 8)): 0.82 ×10^−2 mGy/MBq
Estimated absorbed dose, Skin ([3]; Male (n = 8)): 0.61 ×10^−2 mGy/MBq
Estimated absorbed dose, Small intestine ([3]; Male (n = 8)): 1.11 ×10^−2 mGy/MBq
Estimated absorbed dose, Spleen ([3]; Male (n = 8)): 0.91 ×10^−2 mGy/MBq
Estimated absorbed dose, Stomach wall ([3]; Male (n = 8)): 0.94 ×10^−2 mGy/MBq
Estimated absorbed dose, Testes ([3]; Male (n = 8)): 0.77 ×10^−2 mGy/MBq
Estimated absorbed dose, Thymus ([3]; Male (n = 8)): 0.90 ×10^−2 mGy/MBq
Estimated absorbed dose, Thyroid ([3]; Male (n = 8)): 0.79 ×10^−2 mGy/MBq
Estimated absorbed dose, Total body ([3]; Male (n = 8)): 0.89 ×10^−2 mGy/MBq
Estimated absorbed dose, Upper large intestine wall ([3]; Male (n = 8)): 1.00 ×10^−2 mGy/MBq
Estimated absorbed dose, Urinary bladder wall ([3]; Male (n = 8)): 1.16 ×10^−2 mGy/MBq
whole-body effective dose ([3]; female animals): 24.5 μSv/MBq
whole-body effective dose ([3]; male animals): 20.5 μSv/MBq
estimated dosimetry (effective dose) ([3]; mouse, in vivo): 0.020 mSv/MBq
critical organ (dosimetry) ([3]; naïve mice): lower large intestine
Effective dose ([3]; range over male and female): 20.5–24.5 μSv/MBq
Compound: CC[C@@H](C)N(C)C(=O)c1nc2ccccc2c(-c2ccccc2)c1C[18F] [^18F-LW223]
